Test results as given in patent US11878965B2, “Inhibitors of peptidylarginine deiminases” (Gilead Sciences, Inc., priority 2020, dated 2024).
pIC50: −log10 of the molar value.

Molecular target: human PAD4 (Homo sapiens (Human), UniProt Q9UM07)
Test: In Vitro PAD4 BAEE Biochemical Assay
Settings: geometric mean of multiple experiments
Method in brief: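 Deimination of BAEE substrate (3 mM) measured as ammonia via o-phthalaldehyde–DTT isoindole fluorescence, 405/535 nm. Tag-free bacterially expressed human PAD4 at 5 nM with 2 mM calcium chloride, pH 7.6 MOPS buffer, 30 min compound preincubation then 2 h reaction, both at 25 °C.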

[1] = recombinant PAD4 5 nM, 2 mM calcium chloride, 3 mM BAEE substrate

human PAD4, sequence (Q9UM07 2-663): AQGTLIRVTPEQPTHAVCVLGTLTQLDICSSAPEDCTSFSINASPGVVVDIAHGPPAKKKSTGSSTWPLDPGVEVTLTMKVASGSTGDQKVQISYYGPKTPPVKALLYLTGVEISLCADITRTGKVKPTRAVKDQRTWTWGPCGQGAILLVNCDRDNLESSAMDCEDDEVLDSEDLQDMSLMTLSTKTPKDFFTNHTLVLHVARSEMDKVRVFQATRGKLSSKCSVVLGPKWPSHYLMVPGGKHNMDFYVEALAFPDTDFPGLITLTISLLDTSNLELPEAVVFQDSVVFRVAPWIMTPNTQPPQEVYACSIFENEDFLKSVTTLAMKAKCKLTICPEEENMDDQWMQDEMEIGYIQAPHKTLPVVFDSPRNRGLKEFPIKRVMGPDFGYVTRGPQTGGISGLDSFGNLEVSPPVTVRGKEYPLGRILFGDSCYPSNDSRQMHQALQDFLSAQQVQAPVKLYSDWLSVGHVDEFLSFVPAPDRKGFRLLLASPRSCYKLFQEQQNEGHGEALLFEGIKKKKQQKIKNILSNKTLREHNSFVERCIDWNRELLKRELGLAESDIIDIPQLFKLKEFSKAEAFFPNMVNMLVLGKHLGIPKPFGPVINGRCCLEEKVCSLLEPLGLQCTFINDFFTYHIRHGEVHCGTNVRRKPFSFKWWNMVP

pIC50 [1] | Compound | pIC50 (human PAD4, BAEE substrate, 5 nM PAD4, 2 mM calcium chloride, 3 mM BAEE)
7.21 | COc1cc(C(=O)N2C[C@H](N)[C@@H]3CC[C@H]2C3)cc2nc(-c3cc4ccc([C@@H](C)NC(=O)C5(OC)CC5)nc4n3CC3CC3)n(C)c12 [Example 322, N-((R)-1-(2-(5-((1S,4R,5R)-4-amino-2-azabicyclo[3.2.1]octane-2-carbonyl)-7-methoxy-1-methyl-1H-benzo[d]imidazol-2-yl)-1-(cyclopropylmethyl)-1H-pyrrolo[2,3-b]pyridin-6-yl)ethyl)-1-methoxycyclopropane-1-carboxamide] | 
7.09 | COc1cc(C(=O)N2C[C@H](N)[C@@H]3CC[C@H]2C3)cc2nc(-c3cc4ccc([C@@H](C)NC(=O)C5(C(F)F)CC5)nc4n3CC3CC3)n(C)c12 [Example 324, N-((R)-1-(2-(5-((1S,4R,5R)-4-amino-2-azabicyclo[3.2.1]octane-2-carbonyl)-7-methoxy-1-methyl-1H-benzo[d]imidazol-2-yl)-1-(cyclopropylmethyl)-1H-pyrrolo[2,3-b]pyridin-6-yl)ethyl)-1-(difluoromethyl)cyclopropane-1-carboxamide] | 
6.99 | COc1cc(C(=O)N2C[C@H](N)[C@@H]3CC[C@H]2C3)cc2nc(-c3cc4ccc([C@@H](C)NC(=O)C5(F)CC5)nc4n3CC3CC3)n(C)c12 [Example 326, N-((R)-1-(2-(5-((1S,4R,5R)-4-amino-2-azabicyclo[3.2.1]octane-2-carbonyl)-7-methoxy-1-methyl-1H-benzo[d]imidazol-2-yl)-1-(cyclopropylmethyl)-1H-pyrrolo[2,3-b]pyridin-6-yl)ethyl)-1-fluorocyclopropane-1-carboxamide] | 
7.05 | COc1cc(C(=O)N2C[C@H](N)[C@@H]3CC[C@H]2C3)cc2nc(-c3cc4ccc([C@@H](C)NC(=O)C5(F)CCC5)nc4n3CC3CC3)n(C)c12 [Example 327, N-((R)-1-(2-(5-((1S,4R,5R)-4-amino-2-azabicyclo[3.2.1]octane-2-carbonyl)-7-methoxy-1-methyl-1H-benzo[d]imidazol-2-yl)-1-(cyclopropylmethyl)-1H-pyrrolo[2,3-b]pyridin-6-yl)ethyl)-1-fluorocyclobutane-1-carboxamide] | 
7.07 | COc1cc(C(=O)N2C[C@H](N)[C@@H]3CC[C@H]2C3)cc2nc(-c3cc4ccc([C@@H](C)NC(=O)[C@@]5(C)CC5(F)F)nc4n3CC3CC3)n(C)c12 [Example 332, (R)-N-((R)-1-(2-(5-((1S,4R,5R)-4-amino-2-azabicyclo[3.2.1]octane-2-carbonyl)-7-methoxy-1-methyl-1H-benzo[d]imidazol-2-yl)-1-(cyclopropylmethyl)-1H-pyrrolo[2,3-b]pyridin-6-yl)ethyl)-2,2-difluoro-1-methylcyclopropane-1-carboxamide] | 

The remaining lines, values behind:

Compound | pIC50 [1] | pIC50 (human PAD4, BAEE substrate, 5 nM PAD4, 2 mM calcium chloride, 3 mM BAEE)
COc1cc(C(=O)N2C[C@H](N)[C@@H]3CC[C@H]2C3)cc2nc(-c3cc4ccc([C@@H](C)NC(=O)C(C)(C)OC)nc4n3CC3CC3)n(C)c12 [Example 321, N-((R)-1-(2-(5-((1S,4R,5R)-4-amino-2-azabicyclo[3.2.1]octane-2-carbonyl)-7-methoxy-1-methyl-1H-benzo[d]imidazol-2-yl)-1-(cyclopropylmethyl)-1H-pyrrolo[2,3-b]pyridin-6-yl)ethyl)-2-methoxy-2-methylpropanamide] | 7.14 | 
COc1cc(C(=O)N2C[C@H](N)[C@@H]3CC[C@H]2C3)cc2nc(-c3cc4ccc([C@@H](C)NC(=O)C(C)(C)C(F)F)nc4n3CC3CC3)n(C)c12 [Example 323, N-((R)-1-(2-(5-((1S,4R,5R)-4-amino-2-azabicyclo[3.2.1]octane-2-carbonyl)-7-methoxy-1-methyl-1H-benzo[d]imidazol-2-yl)-1-(cyclopropylmethyl)-1H-pyrrolo[2,3-b]pyridin-6-yl)ethyl)-3,3-difluoro-2,2-dimethylpropanamide] | 7.07 | 
COc1cc(C(=O)N2C[C@H](N)[C@@H]3CC[C@H]2C3)cc2nc(-c3cc4ccc([C@@H](C)NC(=O)C(C)(C)F)nc4n3CC3CC3)n(C)c12 [Example 325, N-((R)-1-(2-(5-((1S,4R,5R)-4-amino-2-azabicyclo[3.2.1]octane-2-carbonyl)-7-methoxy-1-methyl-1H-benzo[d]imidazol-2-yl)-1-(cyclopropylmethyl)-1H-pyrrolo[2,3-b]pyridin-6-yl)ethyl)-2-fluoro-2-methylpropanamide] | 7.04 | 
COc1cc(C(=O)N2C[C@H](N)[C@@H]3CC[C@H]2C3)cc2nc(-c3cc4ccc([C@@H](C)NC(=O)C5(C)CC(F)(F)C5)nc4n3CC3CC3)n(C)c12 [Example 328, N-((R)-1-(2-(5-((1S,4R,5R)-4-amino-2-azabicyclo[3.2.1]octane-2-carbonyl)-7-methoxy-1-methyl-1H-benzo[d]imidazol-2-yl)-1-(cyclopropylmethyl)-1H-pyrrolo[2,3-b]pyridin-6-yl)ethyl)-3,3-difluoro-1-methylcyclobutane-1-carboxamide] | 7.00 | 
COc1cc(C(=O)N2C[C@H](N)[C@@H]3CC[C@H]2C3)cc2nc(-c3cc4ccc([C@@H](C)NC(=O)C(C)(C)CC(F)(F)F)nc4n3CC3CC3)n(C)c12 [Example 329, N-((R)-1-(2-(5-((1S,4R,5R)-4-amino-2-azabicyclo[3.2.1]octane-2-carbonyl)-7-methoxy-1-methyl-1H-benzo[d]imidazol-2-yl)-1-(cyclopropylmethyl)-1H-pyrrolo[2,3-b]pyridin-6-yl)ethyl)-4,4,4-trifluoro-2,2-dimethylbutanamide] | 6.89 | 
COc1cc(C(=O)N2C[C@H](N)[C@@H]3CC[C@H]2C3)cc2nc(-c3cc4ccc([C@@H](C)NC(=O)C(C)(C)C)nc4n3CC(C)(C)O)n(C)c12 [Example 330, N-((R)-1-(2-(5-((1S,4R,5R)-4-amino-2-azabicyclo[3.2.1]octane-2-carbonyl)-7-methoxy-1-methyl-1H-benzo[d]imidazol-2-yl)-1-(2-hydroxy-2-methylpropyl)-1H-pyrrolo[2,3-b]pyridin-6-yl)ethyl)pivalamide] | 6.60 | 
COc1cc(C(=O)N2C[C@H](N)[C@@H]3CC[C@H]2C3)cc2nc(-c3cc4ccc([C@@H](C)NC(=O)[C@]5(C)CC5(F)F)nc4n3CC3CC3)n(C)c12 [Example 331, (S)-N-((R)-1-(2-(5-((1S,4R,5R)-4-amino-2-azabicyclo[3.2.1]octane-2-carbonyl)-7-methoxy-1-methyl-1H-benzo[d]imidazol-2-yl)-1-(cyclopropylmethyl)-1H-pyrrolo[2,3-b]pyridin-6-yl)ethyl)-2,2-difluoro-1-methylcyclopropane-1-carboxamide] | 7.15 | 
(S)-2-(1-(cyclopropylmethyl)-6- ((N-(difluoromethyl) methyl)sulfonamido)-1H- pyrrolo[2,3-b]pyridin-2-yl)- N-(4,4-difluoropiperidin- 3-yl)-6-fluoro- 1-methyl-1H-benzo[d] imidazole-5-carboxamide [Example 92] |  | 6.21
